The test system of this assay is C57BL/6 mice, intracerebral ependymoblastoma, median survival T/C. Put plainly: NCI In Vivo Anticancer Drug Screen. Data for tumor model Ependymoblastoma (intracerebral) in C57BL/6 mice. The conditions noted are these: endpoint: median survival time, higher = longer survival. The procedure: The antitumor activity of compounds was measured in mice bearing transplantable tumors. Survival or tumor size were measured and the results are expressed as the measurement made in the treated group (T) divided by the measurement made in the vehicle treated control group (C). The tumor model used in this assay is Ependymoblastoma (intracerebral) in C57BL/6 mice

Each structure is given as a SMILES string. Inconclusive results and toxic doses are left out.

For the compound `CCC1CC2CN(CCc3c([nH]c4ccccc34)C(C(=O)OC)(c3cc4c(cc3OC)N(C)C3C(O)(C(=O)OC)C(OC(C)=O)C5(CC)C=CCN6CCC43C65)C2)C1` (configuration not stated), the T/C by setting is: (dose: 0.05 mg/kg/injection, schedule: Q01DX005 (ip), vehicle: Klucel (hydroxypropylcellulose) (HPC)) 102 % of control; (dose: 0.1 mg/kg/injection, schedule: Q01DX005 (ip), vehicle: Klucel (hydroxypropylcellulose) (HPC)) 108 % of control; (dose: 0.2 mg/kg/injection, schedule: Q01DX005 (ip), vehicle: Klucel (hydroxypropylcellulose) (HPC)) 108 % of control; (dose: 0.4 mg/kg/injection, schedule: Q01DX005 (ip), vehicle: Klucel (hydroxypropylcellulose) (HPC)) 108 % of control; (dose: 0.8 mg/kg/injection, schedule: Q01DX005 (ip), vehicle: Klucel (hydroxypropylcellulose) (HPC)) 108 % of control; (dose: 1.6 mg/kg/injection, schedule: Q01DX005 (ip), vehicle: Klucel (hydroxypropylcellulose) (HPC)) 102 % of control.
Take `CC(=O)OC(C1CO1)C(OC(C)=O)C1CO1` (configuration not stated): the T/C was 301 % of control (dose: 5.0 mg/kg/injection, schedule: Q01DX005 (ip), vehicle: saline); 365 % of control (dose: 6.0 mg/kg/injection, schedule: Q01DX005 (ip), vehicle: saline); 253 % of control (dose: 7.0 mg/kg/injection, schedule: Q01DX005 (oral), vehicle: saline); 301 % of control (dose: 10.0 mg/kg/injection, schedule: Q01DX005 (ip), vehicle: saline); 365 % of control (dose: 12.0 mg/kg/injection, schedule: Q01DX005 (ip), vehicle: saline); 365 % of control (dose: 14.0 mg/kg/injection, schedule: Q01DX005 (oral), vehicle: saline).

For the origin of these results see PubChem BioAssay AID222 (DTP/NCI, 2004).
